Data taken from PubChem BioAssay (NCI).
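GI50 marks 50% less growth. TGI denotes the concentration required for complete inhibition of growth.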

What was measured:
Assay in all cases: DTP human tumour cell line panel, 384-well format
KM12 colon = test system: KM12 colon
ACHN renal = test system: ACHN renal
NCI-H23 lung = test system: NCI-H23 lung
NCI/ADR-RES ovarian = test system: NCI/ADR-RES ovarian
MDA-MB-468 breast = test system: MDA-MB-468 breast
MALME-3M melanoma = test system: MALME-3M melanoma
T-47D breast = test system: T-47D breast
SF-268 CNS = test system: SF-268 CNS
TK-10 renal = test system: TK-10 renal
SK-MEL-28 melanoma = test system: SK-MEL-28 melanoma
EKVX NSCLC = test system: EKVX NSCLC
SNB-75 CNS = test system: SNB-75 CNS
CAKI-1 renal = test system: CAKI-1 renal
DU-145 prostate = test system: DU-145 prostate
SF-539 CNS = test system: SF-539 CNS
HCC-2998 colon = test system: HCC-2998 colon
COLO 205 colon = test system: COLO 205 colon
IGROV1 ovarian = test system: IGROV1 ovarian
OVCAR-5 ovarian = test system: OVCAR-5 ovarian
SN12C renal = test system: SN12C renal
HOP-62 NSCLC = test system: HOP-62 NSCLC
RXF 393 renal = test system: RXF 393 renal
MOLT-4 leukemia = test system: MOLT-4 leukemia
MDA-MB-435 melanoma = test system: MDA-MB-435 melanoma
BT-549 breast = test system: BT-549 breast
RPMI-8226 leukemia = test system: RPMI-8226 leukemia
LOX IMVI melanoma = test system: LOX IMVI melanoma
UACC-257 melanoma = test system: UACC-257 melanoma
A498 renal = test system: A498 renal
HOP-92 NSCLC = test system: HOP-92 NSCLC
PC-3 prostate = test system: PC-3 prostate
HCT-15 colon = test system: HCT-15 colon
SF-295 CNS = test system: SF-295 CNS
SK-OV-3 ovarian = test system: SK-OV-3 ovarian
M14 melanoma = test system: M14 melanoma
NCI-H226 lung = test system: NCI-H226 lung
A549 NSCLC = test system: A549 NSCLC
MCF7 breast = test system: MCF7 breast
NCI-H522 lung = test system: NCI-H522 lung
SR leukemia = test system: SR leukemia
HL-60(TB) leukemia = test system: HL-60(TB) leukemia
U251 glioblastoma = test system: U251 glioblastoma
NCI-H460 NSCLC = test system: NCI-H460 NSCLC
HS 578T breast = test system: HS 578T breast
SK-MEL-5 melanoma = test system: SK-MEL-5 melanoma
HT29 colon = test system: HT29 colon
OVCAR-4 ovarian = test system: OVCAR-4 ovarian
OVCAR-8 ovarian = test system: OVCAR-8 ovarian
UACC-62 melanoma = test system: UACC-62 melanoma
OVCAR-3 ovarian = test system: OVCAR-3 ovarian
HCT-116 colon = test system: HCT-116 colon
NCI-H322M lung = test system: NCI-H322M lung
SNB-19 CNS = test system: SNB-19 CNS
MDA-MB-231 breast = test system: MDA-MB-231 breast

Q: How did the GI50 (KM12 colon) turn out when `CC(C)c1cc(C(=O)N2Cc3ccc(CN4CCN(C)CC4)cc3C2)c(O)cc1O` was run?
A: 37.1 nM

Q: And the TGI (KM12 colon)?
A: 12500 nM

Q: And the GI50 (ACHN renal)?
A: 59.4 nM

Q: And the TGI (ACHN renal)?
A: 2840 nM

Q: And the GI50 (NCI-H23 lung)?
A: 38.2 nM

Q: What about the TGI (NCI-H23 lung) of the same compound?
A: 13300 nM

Q: What about the GI50 (NCI/ADR-RES ovarian) of the same compound?
A: 166 nM

Q: And the TGI (NCI/ADR-RES ovarian)?
A: 515 nM

Q: What about the GI50 (MDA-MB-468 breast) of the same compound?
A: 37.1 nM

Q: And the TGI (MDA-MB-468 breast)?
A: 158 nM

Q: And the GI50 (MALME-3M melanoma)?
A: 61.5 nM

Q: And the TGI (MALME-3M melanoma)?
A: 694 nM

Q: What about the GI50 (T-47D breast) of the same compound?
A: 172 nM

Q: And the TGI (T-47D breast)?
A: 11600 nM

Q: And the GI50 (SF-268 CNS)?
A: 71.1 nM

Q: What about the TGI (SF-268 CNS) of the same compound?
A: 16200 nM

Q: And the GI50 (TK-10 renal)?
A: 45 nM

Q: What about the TGI (TK-10 renal) of the same compound?
A: 856 nM

Q: What about the GI50 (SK-MEL-28 melanoma) of the same compound?
A: 400 nM

Q: And the TGI (SK-MEL-28 melanoma)?
A: 17100 nM

Q: And the GI50 (EKVX NSCLC)?
A: 46.1 nM

Q: What about the TGI (EKVX NSCLC) of the same compound?
A: 8590 nM

Q: What about the GI50 (SNB-75 CNS) of the same compound?
A: 52.5 nM

Q: And the TGI (SNB-75 CNS)?
A: 11600 nM

Q: And the GI50 (CAKI-1 renal)?
A: 342 nM

Q: What about the TGI (CAKI-1 renal) of the same compound?
A: 17300 nM

Q: What about the GI50 (DU-145 prostate) of the same compound?
A: 30.3 nM

Q: And the TGI (DU-145 prostate)?
A: 88.7 nM

Q: What about the GI50 (SF-539 CNS) of the same compound?
A: 40.4 nM

Q: What about the TGI (SF-539 CNS) of the same compound?
A: 10400 nM

Q: And the GI50 (HCC-2998 colon)?
A: 12.4 nM

Q: And the TGI (HCC-2998 colon)?
A: 31.7 nM

Q: What about the GI50 (COLO 205 colon) of the same compound?
A: 23.7 nM

Q: What about the TGI (COLO 205 colon) of the same compound?
A: 62.9 nM

Q: What about the GI50 (IGROV1 ovarian) of the same compound?
A: 37.7 nM

Q: What about the TGI (IGROV1 ovarian) of the same compound?
A: 216 nM

Q: And the GI50 (OVCAR-5 ovarian)?
A: 38.7 nM

Q: And the TGI (OVCAR-5 ovarian)?
A: 186 nM

Q: What about the GI50 (SN12C renal) of the same compound?
A: 24.4 nM

Q: What about the TGI (SN12C renal) of the same compound?
A: 125 nM

Q: What about the GI50 (HOP-62 NSCLC) of the same compound?
A: 47.4 nM

Q: And the TGI (HOP-62 NSCLC)?
A: 357 nM

Q: What about the GI50 (RXF 393 renal) of the same compound?
A: 33.8 nM

Q: And the TGI (RXF 393 renal)?
A: 11300 nM

Q: And the GI50 (MOLT-4 leukemia)?
A: 19.4 nM

Q: What about the TGI (MOLT-4 leukemia) of the same compound?
A: 35.7 nM

Q: And the GI50 (MDA-MB-435 melanoma)?
A: 35.3 nM

Q: What about the TGI (MDA-MB-435 melanoma) of the same compound?
A: 10500 nM

Q: What about the GI50 (BT-549 breast) of the same compound?
A: 32.1 nM

Q: What about the TGI (BT-549 breast) of the same compound?
A: 528 nM

Q: And the GI50 (RPMI-8226 leukemia)?
A: 40.3 nM

Q: And the TGI (RPMI-8226 leukemia)?
A: 156 nM

Q: And the GI50 (LOX IMVI melanoma)?
A: 39.2 nM

Q: And the TGI (LOX IMVI melanoma)?
A: 146 nM

Q: What about the GI50 (UACC-257 melanoma) of the same compound?
A: 186 nM

Q: And the TGI (UACC-257 melanoma)?
A: 5190 nM

Q: And the GI50 (A498 renal)?
A: 82.2 nM

Q: And the TGI (A498 renal)?
A: 11300 nM

Q: What about the GI50 (HOP-92 NSCLC) of the same compound?
A: 217 nM

Q: What about the TGI (HOP-92 NSCLC) of the same compound?
A: 1600 nM

Q: And the GI50 (PC-3 prostate)?
A: 46.5 nM

Q: What about the TGI (PC-3 prostate) of the same compound?
A: 319 nM

Q: What about the GI50 (HCT-15 colon) of the same compound?
A: 32.2 nM

Q: What about the TGI (HCT-15 colon) of the same compound?
A: 10200 nM

Q: What about the GI50 (SF-295 CNS) of the same compound?
A: 40.7 nM

Q: And the TGI (SF-295 CNS)?
A: 256 nM

Q: And the GI50 (SK-OV-3 ovarian)?
A: 84.3 nM

Q: And the TGI (SK-OV-3 ovarian)?
A: 12100 nM

Q: And the GI50 (M14 melanoma)?
A: 47.9 nM

Q: What about the TGI (M14 melanoma) of the same compound?
A: 2690 nM

Q: And the GI50 (NCI-H226 lung)?
A: 75.8 nM

Q: And the TGI (NCI-H226 lung)?
A: 838 nM

Q: And the GI50 (A549 NSCLC)?
A: 64.1 nM

Q: And the TGI (A549 NSCLC)?
A: 16800 nM

Q: And the GI50 (MCF7 breast)?
A: 37.9 nM

Q: What about the TGI (MCF7 breast) of the same compound?
A: 11100 nM

Q: What about the GI50 (NCI-H522 lung) of the same compound?
A: 20.6 nM

Q: And the TGI (NCI-H522 lung)?
A: 42.3 nM

Q: What about the GI50 (SR leukemia) of the same compound?
A: 13.8 nM

Q: And the TGI (SR leukemia)?
A: 36.8 nM

Q: And the GI50 (HL-60(TB) leukemia)?
A: 21.8 nM

Q: What about the TGI (HL-60(TB) leukemia) of the same compound?
A: 41.7 nM

Q: And the GI50 (U251 glioblastoma)?
A: 34.3 nM

Q: What about the TGI (U251 glioblastoma) of the same compound?
A: 97.3 nM

Q: What about the GI50 (NCI-H460 NSCLC) of the same compound?
A: 17.9 nM

Q: What about the TGI (NCI-H460 NSCLC) of the same compound?
A: 43.6 nM

Q: What about the GI50 (HS 578T breast) of the same compound?
A: 131 nM

Q: What about the TGI (HS 578T breast) of the same compound?
A: 2330 nM

Q: What about the GI50 (SK-MEL-5 melanoma) of the same compound?
A: 23.7 nM

Q: What about the TGI (SK-MEL-5 melanoma) of the same compound?
A: 1330 nM

Q: What about the GI50 (HT29 colon) of the same compound?
A: 40.5 nM

Q: And the TGI (HT29 colon)?
A: 11300 nM

Q: And the GI50 (OVCAR-4 ovarian)?
A: 33.2 nM

Q: What about the TGI (OVCAR-4 ovarian) of the same compound?
A: 1700 nM

Q: What about the GI50 (OVCAR-8 ovarian) of the same compound?
A: 37.9 nM

Q: And the TGI (OVCAR-8 ovarian)?
A: 175 nM

Q: What about the GI50 (UACC-62 melanoma) of the same compound?
A: 113 nM

Q: What about the TGI (UACC-62 melanoma) of the same compound?
A: 1680 nM

Q: And the GI50 (OVCAR-3 ovarian)?
A: 34.3 nM

Q: What about the TGI (OVCAR-3 ovarian) of the same compound?
A: 93.5 nM

Q: And the GI50 (HCT-116 colon)?
A: 57.6 nM

Q: What about the TGI (HCT-116 colon) of the same compound?
A: 11700 nM

Q: And the GI50 (NCI-H322M lung)?
A: 84.7 nM

Q: What about the TGI (NCI-H322M lung) of the same compound?
A: 4760 nM

Q: And the GI50 (SNB-19 CNS)?
A: 76.4 nM

Q: What about the TGI (SNB-19 CNS) of the same compound?
A: 710 nM

Q: And the GI50 (MDA-MB-231 breast)?
A: 142 nM

Q: What about the TGI (MDA-MB-231 breast) of the same compound?
A: 775 nM
